Reference: PMC9019904, “AD Informer Set: Chemical tools to facilitate Alzheimer's disease drug discovery” (Alzheimer's & Dementia : Translational Research & Clinical …, 2022)

Key:
[1] = system: BV2 (mouse microglia) cell line; assay: pHrodo-myelin phagocytosis/cell viability high content imaging assay: viability (cell count, nuclear area, nuclear intensity); conditions: 48 hours treatment
Description: (§1) All AD Informer Set compounds were tested in two immortalized microglial cell lines, murine (BV2), and human (HMC3), in a high‐content imaging assay in duplicate by the Chu lab. Experimental details and all data can be found as supporting information files.
(§2) The role of microglia in AD has been well documented and was thus chosen as a cell type in which to profile the AD Informer Set.[43], [44], [45] As an example, neuroinflammation, as detected by the presence of activated complement proteins, interleukins, cytokines, and chemokines in microglia and astrocytes, is increased early in AD and is considered pathogenic due to its chronic nature.[33], [34] Cytotoxic effects can be assessed by considering multiple parameters.
(§3) Microglial viability and phagocytosis studies: The pHrodo-myelin phagocytosis/cell viability assay, modified based on a published method, was run with immortalized BV2 (mouse microglia) and HMC3 (human microglia) cell lines in the Chu lab at IUSM. The 384-well plate high content analysis assay with BV2 and HMC3 microglial cell lines is used to quantify both phagocytosis and cell viability simultaneously. High content imaging is performed with the ArrayScan automatic imaging system and imaging analysis done with the software on the system. After allowing cells to adhere overnight, they are treated with compounds for total 48 hours including final 20 hours seeded with pHrodo-myelin (labeled phagocytosis ligand, purified […]
(§4) (approximately 22 hours after pHrodo-myelin addition). Three measurements are extracted from the assay: 1) phagocytosis signal by mean total phagocytosis spot intensity per cell, 2) total cell counts per well as the main measurement of cell viability, and 3) mean average nuclear intensity per cell as profiling of cell health since apoptotic cells showing nuclear intensity increase (early apoptosis) and decrease (later apoptosis), respectively. These measurements allow for evaluation of compound-induced phagocytosis (1) and cytotoxicity (2 and 3). Assays were carried out at a single concentration (10 μM). Idelalisib (10 μM) and cytochalasin-D (4 μM) were used as positive controls in the assay. All data, which was an average of 2 data points, was normalized to untreated wells and reported as % control, which is included in the Supporting Information both as a raw data file and summarized in the compound/gene-annotation file.

[2] = system: HMC3 (human microglia) cell line; assay: as above; conditions: for 1. Cell count (% control) / 2. Nuclear Area (% Control) / 3. Nuclear DNA Intensity (% control): 48 hours treatment
Description: as §1, §2, §3, §4

[3] = system: BV2 (mouse microglia) cell line; assay: pHrodo-myelin phagocytosis/cell viability high content imaging assay: phagocytosis signal; assay type: cell-based
Description: (§5) It is important to note that stressed cells, such as those that are dying, are prone to show an increase in phagocytosis. […] MerTK promotes phagocytosis and thus MerTK inhibition is proposed to lead to inhibition of phagocytosis.[47]
(§6) phagocytosis and cell viability simultaneously. High content imaging is performed with the
(§7) (approximately 22 hours after pHrodo-myelin addition). Three measurements are extracted
(§8) intensity increase (early apoptosis) and decrease (later apoptosis), respectively. These
and 3). […]

[4] = system: HMC3 (human microglia) cell line; assay: as above; assay type: cell-based
Description: as §5, §6, §7, §8
and 3). […]

[5] = BV2 cells, 10 uM compound, 48 hours treatment, pHrodo-myelin final 20 hours
[6] = HMC3 cells, 10 uM compound, 48 hours treatment, pHrodo-myelin final 20 hours
[7] = BV2, compound 10 uM, pHrodo-myelin
[8] = HMC3, compound 10 uM, pHrodo-myelin

## CCN(CC)Cc1ccc(C(=O)N(CCc2ccccc2OC)[C@@H]2CCNC2)cc1.Cl.Cl [UNC10302833A]
[1]; BV2 cells, 10 uM compound
  1. Cell count (% control): 70.3 % control
  2. Nuclear Area (% Control): 106.1 % Control
  3. Nuclear DNA Intensity (% control): 102.7 % control
[2]; HMC3 cells, 10 uM compound
  1. Cell count (% control): 76.9 % control
  2. Nuclear Area (% Control): 96.9 % Control
  3. Nuclear DNA Intensity (% control): 107.9 % control
[3]; [5]
  4. Phagocytosis (% control): 210.8 % control
[4]; [6]
  4. Phagocytosis (% control): 38.5 % control

## COS(=O)(=O)[O-].C[n+]1c2ccccc2nc2ccccc21 [UNC10302857A]
[1]; BV2 cells, 10 uM compound
  1. Cell count (% control): 16.9 % control
  2. Nuclear Area (% Control): 123.3 % Control
  3. Nuclear DNA Intensity (% control): 59.8 % control
[2]; HMC3 cells, 10 uM compound
  1. Cell count (% control): 60.7 % control
  2. Nuclear Area (% Control): 61.5 % Control
  3. Nuclear DNA Intensity (% control): 197.5 % control
[3]; [5]
  4. Phagocytosis (% control): 27.9 % control
[4]; [6]
  4. Phagocytosis (% control): 0.031 % control

## CN(C)CCCOc1c(Br)cc(/C=C/C(=O)NCCCOc2c(Br)cc(CCN(C)C)cc2Br)cc1Br [UNC10302702A]
[1]; BV2, compound 10 uM
  1. Cell count (% control): 26.8 % control
  2. Nuclear Area (% Control): 80.6 % Control
  3. Nuclear DNA Intensity (% control): 57.8 % control
[2]; HMC3, compound 10 uM
  1. Cell count (% control): 39.0 % control
  2. Nuclear Area (% Control): 54.1 % Control
  3. Nuclear DNA Intensity (% control): 166.0 % control
[3]; [7]
  4. Phagocytosis (% control): 0.0 % control
[4]; [8]
  4. Phagocytosis (% control): 0.00724 % control

## CC(C)CCOc1ccc(N)cc1 [UNC10302876A]
[3]; [5]
  4. Phagocytosis (% control): 110.6 % control
[4]; [6]
  4. Phagocytosis (% control): 89.8 % control

## CC(=O)NCC(=O)N1[C@@H]2CC[C@H]1c1ccc(Nc3ncc(C(F)(F)F)c(NC4CCC4)n3)cc12 [UNC10302896A]
[1]; BV2 cells, 10 uM compound
  1. Cell count (% control): 18.3 % control
  2. Nuclear Area (% Control): 110.7 % Control
  3. Nuclear DNA Intensity (% control): 18.8 % control
[2]; HMC3 cells, 10 uM compound
  1. Cell count (% control): 69.3 % control
  2. Nuclear Area (% Control): 158.3 % Control
  3. Nuclear DNA Intensity (% control): 82.5 % control
[3]; [5]
  4. Phagocytosis (% control): 0.15 % control
[4]; [6]
  4. Phagocytosis (% control): 16.0 % control

## NCCCC[C@H](N[C@@H](CCc1ccccc1)C(=O)O)C(=O)N1CCC[C@H]1C(=O)O.O.O [UNC10302835A]
[1]; BV2, compound 10 uM
  1. Cell count (% control): 119.8 % control
  2. Nuclear Area (% Control): 103.4 % Control
  3. Nuclear DNA Intensity (% control): 99.2 % control
[2]; HMC3, compound 10 uM
  1. Cell count (% control): 155.8 % control
  2. Nuclear Area (% Control): 99.6 % Control
  3. Nuclear DNA Intensity (% control): 95.8 % control
[3]; [7]
  4. Phagocytosis (% control): 121.2 % control
[4]; [8]
  4. Phagocytosis (% control): 70.9 % control

## CC[C@H](Nc1ncnc2[nH]cnc12)c1nc2cccc(F)c2c(=O)n1-c1ccccc1 [Idelalisib]
[1]; BV2, compound 10 uM
  1. Cell count (% control): 17.2 % control
  2. Nuclear Area (% Control): 138.0 % Control
  3. Nuclear DNA Intensity (% control): 108.4 % control
[2]; HMC3, compound 10 uM
  1. Cell count (% control): 61.4 % control
  2. Nuclear Area (% Control): 105.8 % Control
  3. Nuclear DNA Intensity (% control): 124.0 % control
[3]; [7]
  4. Phagocytosis (% control): 107.9 % control
[4]; [8]
  4. Phagocytosis (% control): 5.6 % control

## COc1cc(N2CCC(N3CCN(C)CC3)CC2)ccc1Nc1ncc(Cl)c(Nc2ccccc2P(C)(C)=O)n1 [UNC10244797A]
[1]; BV2, compound 10 uM
  1. Cell count (% control): 44.4 % control
  2. Nuclear Area (% Control): 109.2 % Control
  3. Nuclear DNA Intensity (% control): 111.1 % control
[2]; HMC3, compound 10 uM
  1. Cell count (% control): 103.9 % control
  2. Nuclear Area (% Control): 120.2 % Control
  3. Nuclear DNA Intensity (% control): 97.2 % control
[3]; [7]
  4. Phagocytosis (% control): 236.8 % control
[4]; [8]
  4. Phagocytosis (% control): 99.4 % control

## COc1cc(Nc2ncc(F)c(Nc3ccc4c(n3)N(COP(=O)([O-])[O-])C(=O)C(C)(C)O4)n2)cc(OC)c1OC.[Na+].[Na+] [UNC10302863A]
[1]; BV2 cells, 10 uM compound
  1. Cell count (% control): 16.5 % control
  2. Nuclear Area (% Control): 113.6 % Control
  3. Nuclear DNA Intensity (% control): 22.9 % control
[2]; HMC3 cells, 10 uM compound
  1. Cell count (% control): 80.8 % control
  2. Nuclear Area (% Control): 86.8 % Control
  3. Nuclear DNA Intensity (% control): 124.3 % control
[3]; [5]
  4. Phagocytosis (% control): 0.00651 % control
[4]; [6]
  4. Phagocytosis (% control): 201.3 % control

## O=C(Nc1c[nH]nc1-c1nc2cc(CN3CCOCC3)ccc2[nH]1)NC1CC1 [UNC10126643A]
[1]; BV2 cells, 10 uM compound
  1. Cell count (% control): 6.1 % control
  2. Nuclear Area (% Control): 158.4 % Control
  3. Nuclear DNA Intensity (% control): 29.9 % control
[2]; HMC3 cells, 10 uM compound
  1. Cell count (% control): 85.8 % control
  2. Nuclear Area (% Control): 114.0 % Control
  3. Nuclear DNA Intensity (% control): 123.7 % control
[3]; [5]
  4. Phagocytosis (% control): 1.0 % control
[4]; [6]
  4. Phagocytosis (% control): 64.5 % control

## CC(=O)O.Cc1c(-c2ccc(O)cc2)n(Cc2ccc(OCCN3CCCCCC3)cc2)c2ccc(O)cc12 [UNC10245115A]
[3]; [5]
  4. Phagocytosis (% control): 0.00966 % control
[4]; [6]
  4. Phagocytosis (% control): 0.00872 % control

## COc1ccc(/C=C/C(=O)c2ccc(OC)cc2OC)cc1 [Metochalcone]
[2]; HMC3, 10 μM, cell count <70% control
  Human microglial cytotoxicity at 10 μM (<70% control): Y (The compound was found to be cytotoxic (cell count threshold: <70% control) when human immortalized microglial cells were dosed at 10 μM (Y: yes))
[3]; BV2, 10 μM
  Stimulation of mouse microglial phagocytosis at 10 μM (>150% control): Y (The compound was found to stimulate phagocytosis (response threshold: >150% control) when murine immortalized microglial cells were dosed at 10 μM (Y: yes))

## O=C(NC12C[C@H]3C[C@@H](C1)C[C@@H](C2)C3)N[C@H]1CC[C@H](Oc2ccc(C(=O)O)cc2)CC1 [UNC10303108A]
[3]; [5]
  4. Phagocytosis (% control): 153.6 % control
[4]; [6]
  4. Phagocytosis (% control): 109.9 % control

## O=C(NC12C[C@H]3C[C@@H](C1)C[C@@H](C2)C3)N[C@H]1CC[C@H](Oc2ccc(C(=O)O)cc2)CC1 [t-AUCB]
[3]; BV2, 10 μM
  Stimulation of mouse microglial phagocytosis at 10 μM (>150% control): Y (The compound was found to stimulate phagocytosis (response threshold: >150% control) when murine immortalized microglial cells were dosed at 10 μM (Y: yes))

## O=c1ccc2c(OCCCCOc3ccccc3)c3ccoc3cc2o1 [PAP-1 (5-(4-Phenoxybutoxy)psoralen)]
[3]; 10 μM, BV2
  Stimulation of mouse microglial phagocytosis at 10 μM (>150% control): Y (The compound was found to stimulate phagocytosis (response threshold: >150% control) when murine immortalized microglial cells were dosed at 10 μM (Y: yes))

## CC/C(=C(\c1ccccc1)c1ccc(OCCN(C)C)cc1)c1ccccc1 [Tamoxifen]
[3]; BV2, 10 μM
  Stimulation of mouse microglial phagocytosis at 10 μM (>150% control): Y (The compound was found to stimulate phagocytosis (response threshold: >150% control) when murine immortalized microglial cells were dosed at 10 μM (Y: yes))

## Cc1cc(O)cc2c1[C@]1(C)CC[C@H]3C(C)(C)CCC[C@]3(C)[C@H]1C2 [AQX-MN100]
[3]; 10 μM, BV2
  Stimulation of mouse microglial phagocytosis at 10 μM (>150% control): Y (The compound was found to stimulate phagocytosis (response threshold: >150% control) when murine immortalized microglial cells were dosed at 10 μM (Y: yes))

## O=c1ccc2c(OCCCCc3ccccc3)c3ccoc3cc2o1 [Psora-4 (5-(4-Phenylbutoxy)psoralen)]
[3]; 10 μM, BV2
  Stimulation of mouse microglial phagocytosis at 10 μM (>150% control): Y (The compound was found to stimulate phagocytosis (response threshold: >150% control) when murine immortalized microglial cells were dosed at 10 μM (Y: yes))
[4]; 10 μM, HMC3
  Inhibition of human microglial phagocytosis at 10 μM (<70% control): Y (The compound was found to inhibit phagocytosis (response threshold: <70% control) when human immortalized microglial cells were dosed at 10 μM (Y: yes))
